What was measured:
Type in all cases: cell-based
[1] = target: T1, Smo wild type (Homo sapiens, UniProt Q99835); assay: Reporter assay of C3H10T1/2-Gli-Luc cells transfected with wild-type Smo, without SAG; conditions: C3H10T1/2 cells transfected with pLPCX-SMO, no SAG, 48 hr; read-out: Inhibition of C3H10T1/2-Gli-Luc-Smo-WT [IC50
T1 construct: expressed in transfected cells; host or cells: C3H10T1/2 cells (ATCC CCL-226), transient transfection with pLPCX-SMO
How it was run: (§1)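 C3H10T1/2-Gli-Luc cells transiently transfected with wild-type or D473H SMO, replated in 0.5% FBS RPMI and incubated with compounds 48 h at 37 °C without SAG. Dual-luciferase, firefly normalized to Renilla; scaled to DMSO (100%) and 10 μM ALLO-2 (0%); IC50 by nonlinear regression.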

[2] = target: T2, Smo D473H mutant (Homo sapiens, UniProt Q99835, D473H); assay: Reporter assay of C3H10T1/2-Gli-Luc cells transfected with Smo D473H mutant, without SAG; conditions: C3H10T1/2 cells transfected with pLPCX-SMO-D473H, no SAG, 48 hr; read-out: Inhibition of C3H10T1/2-Gli-Luc-Smo-D473H [IC50
T2 construct: expressed in transfected cells; host or cells: C3H10T1/2 cells (ATCC CCL-226), transient transfection with pLPCX-SMO-D473H
T2 sequence (Q99835 28-787 D473H): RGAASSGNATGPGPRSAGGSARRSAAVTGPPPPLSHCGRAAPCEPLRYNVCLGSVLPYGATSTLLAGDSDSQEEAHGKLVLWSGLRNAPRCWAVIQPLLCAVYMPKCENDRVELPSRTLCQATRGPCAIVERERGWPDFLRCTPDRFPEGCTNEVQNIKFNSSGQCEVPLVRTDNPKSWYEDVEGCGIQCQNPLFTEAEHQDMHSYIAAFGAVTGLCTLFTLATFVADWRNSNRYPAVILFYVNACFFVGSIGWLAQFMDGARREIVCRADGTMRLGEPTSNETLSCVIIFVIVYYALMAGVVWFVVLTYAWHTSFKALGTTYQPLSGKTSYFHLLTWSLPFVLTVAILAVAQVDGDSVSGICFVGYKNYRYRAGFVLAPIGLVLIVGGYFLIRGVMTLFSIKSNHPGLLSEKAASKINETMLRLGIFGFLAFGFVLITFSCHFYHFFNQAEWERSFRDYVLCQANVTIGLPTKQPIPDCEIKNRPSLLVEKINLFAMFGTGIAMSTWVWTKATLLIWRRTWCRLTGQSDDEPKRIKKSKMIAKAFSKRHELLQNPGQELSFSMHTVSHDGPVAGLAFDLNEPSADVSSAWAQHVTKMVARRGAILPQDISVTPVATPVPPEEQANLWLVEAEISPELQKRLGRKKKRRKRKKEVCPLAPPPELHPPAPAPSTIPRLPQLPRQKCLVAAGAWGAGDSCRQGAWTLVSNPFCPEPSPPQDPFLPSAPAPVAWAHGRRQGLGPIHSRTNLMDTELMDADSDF
How it was run: as §1

[3] = test system: hedgehog pathway (pGL3-7xGli-Luciferase reporter in C3H10T1/2 cells); assay: Transient transfection of C3H10T1/2 and Gli-Luc reporter assay with SAG stimulation; conditions: Mus musculus, C3H 10T1/2, SAG 20 nM, 48 hr, read-out: Inhibition of Gli-Luc expression [IC50
How it was run: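 C3H10T1/2 cells were transiently transfected with a 7xGli-firefly luciferase reporter and a TK-Renilla control, then treated with serially diluted compounds plus 20 nM SAG in 0.5% FBS for 48 h at 37 °C. Firefly signal was normalized to Renilla and scaled between DMSO with SAG (100%) and without SAG (0%). IC50 was obtained by nonlinear regression.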

T1 sequence (Q99835 28-787): as the sequence (Q99835 28-787 D473H) above, with H446D counted along it

SMILES	IC50 [1]	IC50 [2]	IC50 [3]
COc1cccc(C)c1NC(=O)c1ccc(Nc2ncc(SC)c(-c3cccnc3F)n2)cc1 [Compound 14, 4-[4-(2-Fluoro-pyridin-3-yl)-5-methylsulfanyl-pyrimidin-2-ylamino]-N-(2-methoxy-6-methyl-phenyl)-benzamide]	0.1 to 1 µM	0.1 to 1 µM	< 0.1 µM
CSc1cnc(Nc2ccc(C(=O)Nc3cc(CN(C)C)ccc3C)cc2)nc1-c1ccc(C(F)(F)F)cc1 [Compound 32, N-(5-Dimethylaminomethyl-2-methyl-phenyl)-4-[5-methylsulfanyl-4-(4-trifluoromethyl-phenyl)-pyrimidin-2-ylamino]-benzamide]	0.1 to 1 µM	0.1 to 1 µM	0.1 to 1 µM
CSc1cnc(Nc2ccc(C(=O)Nc3ccccc3C)cc2F)nc1-c1cccnc1F [Compound 16, 3-Fluoro-4-[4-(2-fluoro-pyridin-3-yl)-5-methylsulfanyl-pyrimidin-2-ylamino]-N-o-tolyl-benzamide]	0.1 to 1 µM	0.1 to 1 µM	0.1 to 1 µM

Reference: patent US10793542B2, “Hetroarylamine compounds for modulating the hedgehog pathway and preparing method and uses thereof” (DEVELOPMENT CENTER FOR BIOTECHNOLOGY, priority 2016, dated 2020)
